Assay [1] concerns Nanog-GFP MEF. The experiment in a line: GFP observation of induced mouse iPS cells with a fluorescence microscope. It is filed as cell-based. The note with it: 4F (c-Myc). As for the experimental part: (§1) For retroviral introduction, a retroviral vector expressing each pluripotency inducer (Oct-3/4, Sox2, KLF4, and c-Myc) was introduced into packaging cells, PLAT-E cells (Kitamura T, et al. (2003) Exp Hematol 31:1007-1014). Culture supernatants of PLAT-E cells were each recovered two days after gene introduction, and filtered through a 0.45 μm cellulose acetate. Polybrene was then added to a final concentration […], an equal amount of each culture supernatant was mixed, and the mixture was added to Nanog-GFP MEF (Okita K, Ichisaka T, Yamanaka S. (2007) nature 448:313-317) for viral infection. Nanog-GFP MEF is a cell being a mouse embryonic fibroblast (MEF) to which a BAC was introduced, wherein a GFP-IRES-Puro^r cassette is inserted into the BAC carrying the mouse Nanog gene.

The test system of assay [2] is Nanog-GFP MEF. The experiment in a line: Induction of mouse iPS cells in the presence of MEK inhibitor and GSK-3 inhibitor (2i method), fluorescence microscope. It is filed as cell-based. The note with it: 4F (c-Myc); nicotinamide treatment followed by 2i method; FIGS. 7C and 7D. As for the experimental part: Nanog-GFP MEF was subjected to forced expression of 4F(c-Myc) retrovirally. These were seeded on feeder cells on Day 4 after retroviral infection, and cultured in mouse ES cell medium from the following day. This was replaced with a serum-free mouse ES cell medium comprising PD0325901 (1 μM) and CHIR99021 (3 μM) (2i medium) from Day 12 after infection. […] As the control zone, culturing was also performed in a serum-free mouse ES cell medium without PD0325901 and CHIR99021 from 12 days after infection for four days. It was confirmed that true iPS cells are increased by the 2i method (FIGS. 7A and 7B).

Assay [3] concerns Nanog-GFP MEF. The assay can be described thus: 2i method timing and combination with nicotinamide, Puro-resistant AP-positive colonies. The format is cell-based, mouse. The method, then:
Nanog-GFP MEF was subjected to forced expression of 4F(c-Myc) retrovirally. These were seeded on feeder cells on Day 4 after retroviral infection, and cultured in mouse ES cell medium from the following day until replaced with the 2i medium. Culturing in the 2i medium was initiated on (1) Day 5, (2) Day 7, (3) Day 9, (4) Day 11, (5) Day 13, and (6) Day 15 after retroviral infection, and continued until Day 17 after infection. From Day 17 after infection, drug selection by Puro was performed for eight days, and then AP staining was performed. […] Next, in order to compare when the nicotinamide treatment is performed simultaneously with retroviral infection and when it is performed after one day post infection, investigation was performed in accordance with the conditions of Test 5 (1).

Assay [4] deals with Nanog-GFP MEF. The experiment in a line: Induction of mouse iPS cells, Puro-resistant AP-positive colonies. The format is cell-based. As for the experimental part:
as §1
On Day 4 after retroviral infection, these were seeded on STO feeder cells with suppressed proliferation ability from mitomycin C (SIGMA: M4287) treatment (seeded at 2×10^3 cells/ml for cells infected with 4F (c-Myc), 3.5×10^4 cells/ml for 3F), and on the next day cultured in mouse ES cell medium (Nishimoto M, et al. (1999) Mol Cell Biol 19:5453-5465). Thereafter the medium was replaced every two days, replaced with puromycin (Puro)-containing mouse ES cell medium (Puro to a final concentration of […]) on Day 17 after infection, and cultured for eight more days. Alkaline phosphatase (AP) staining was then performed. Nicotinamide was added simultaneously with retroviral infection to a final concentration 4 mM, and then added at the same concentration for every medium exchange.
In order to investigate the optimal treatment time of nicotinamide, nicotinamide was added under each conditions of until Day 24 after retroviral infection (Nam 0-24d), until Day 4 after retroviral infection (Nam 0-4d), and from Day 4 to Day 24 after retroviral infection (Nam 4-24d), and iPS cells were induced by 4F (c-Myc). Experimental method other than the […] treatment time was in accordance with Test 1.
Consequently, resveratrol which activates sirtuin (SIRT1) was added to the medium instead of nicotinamide to investigate the induction effect of iPS cells. Experimental method was in accordance with Test 2, except that resveratrol (Res) was added to the medium to a final concentration 100 μM.

For assay [5], the system named is Nanog-GFP MEF. The assay can be described thus: Inspection on Day 4 after retroviral infection (colonies, cell count, AP staining, undifferentiated markers). The format is cell-based, mouse. As for the experimental part: As a result, iPS cell-like colonies were recognized in the Nam treatment group, but not in the untreated control group. (FIGS. 4 and 5A). Next, in order to investigate the influence of nicotinamide on Day 4 after infection, the number of cells was counted and AP staining was performed. […] Further, as a result of investigating the expression of various undifferentiated markers, it became clear that the expression of undifferentiated markers was increased compared to the non-treatment group due to nicotinamide treatment (data not shown). Accordingly, it became clear that iPS cell induction was already promoted on Day 4 after infection by nicotinamide treatment.

Another assay has as its system human fibroblasts. The experiment in a line: Induction of human iPS cells in the presence of nicotinamide, AP-positive colonies. The format is cell-based. As for the experimental part:
For retroviral introduction, retroviral vectors expressing each pluripotency inducer (Oct-3/4, Sox2, KLF4, and c-Myc) were introduced into packaging cells, PLAT-GP cells (Morita S, et al. (2000) Gene Therapy 7:1063-1066). Culture supernatants of PLAT-GP cells were each recovered two days after gene introduction, and filtered through a 0.45 μm cellulose acetate. Polybrene was then added to a final concentration […], an equal amount of each culture supernatant was mixed, and the mixture was added to human fibroblasts for viral infection. These were seeded on feeder cells on Day 6 after retroviral infection (4F (c-Myc): 2.5×10^4; 4F (L-Myc): 5.0×10^4), and cultured in human ES cell medium on the following day (Takahashi K, et al (2007) Cell 131:861-872). Thereafter the medium was exchanged every two days, and cultured until thirty days after infection. Alkaline phosphatase (AP) staining was then performed, and the number of AP-positive colonies was counted. Nicotinamide was added simultaneously with retroviral infection to a final concentration 4 mM, and then added at the same concentration for every medium exchange until Day 6 after infection. The control zone was cultured to thirty days after infection without adding nicotinamide.

Molecules are shown by their SMILES. “Also recorded” adds a separate entry of the source.

For the compound `NC(=O)c1cccnc1` [nicotinamide], the “GFP color development vs non-administration group” value with Nanog-GFP MEF [1] (after drug selection by Puro, FIG. 2 lower column) is reported as “more intense color development”. In addition, in the assay on Nanog-GFP MEF [1] (without drug selection by Puro, FIG. 2 upper column), the “GFP color development vs nicotinamide-untreated control cells” value is reported as “slightly more intense color development”. The “true iPS cells” value in the assay with Nanog-GFP MEF [2] is “dramatic increase”. For the same compound, the “proportion of true iPS cells” value in the assay on Nanog-GFP MEF [3] (nicotinamide 4 mM Day 0 to Day 4 plus 2i method as Test 5 (1), FIG. 9A) is given as “significantly increased”. In addition, the “induction efficiency compared to the conventional method” value in the assay with Nanog-GFP MEF [3] (nicotinamide treatment combined with 2i method, FIG. 9) was “about 10 times”. In addition, the “induction efficiency, nicotinamide Day 1 to Day 4 relative to Day 0 to Day 4” value with Nanog-GFP MEF [3] (with 2i method as Test 5 (1), FIG. 9B) was “three-fold; also recorded: three times or more”. Besides, the “number of Puro-resistant colonies” value with Nanog-GFP MEF [4] (4F (c-Myc), nicotinamide added Day 0 to Day 4 (Nam 0-4d), FIG. 3) is “similarly significantly increased”; with Nanog-GFP MEF [4] (4F (c-Myc), nicotinamide added Day 0 to Day 24 (Nam 0-24d), FIG. 3), “significantly increased”. The “effect of increasing the number of Puro-resistant colonies” value with Nanog-GFP MEF [4] (4F (c-Myc), nicotinamide added on or after Day 4 (Nam 4-24d), FIG. 3) is listed as “barely obtained”. In the assay with Nanog-GFP MEF [4] (cells infected with 3F (without c-Myc), nicotinamide 4 mM, FIG. 1C), the “increase in induction efficiency (Puro-resistant AP-positive colonies)” value is “not seen”. Also, the “number of colonies showing resistance to puromycin (Puro-resistant AP-positive colonies)” value with Nanog-GFP MEF [4] (cells infected with 4F (c-Myc), nicotinamide 4 mM from infection, at every medium exchange, FIG. 1A, 1B) is listed as “significantly increased”. Further, the “number of AP-positive colonies” value in the assay on Nanog-GFP MEF [5] (Day 4 after infection, FIG. 5C) is recorded as “significant increase”; with human fibroblasts (nicotinamide 4 mM until Day 6, counted thirty days after infection, vs zone without nicotinamide, FIG. 10), “increased”. In the assay with Nanog-GFP MEF [5] (Day 4 after infection, vs non-treatment cell group, FIG. 5B), the number of cells result is given as “increase”. Moreover, the “expression of undifferentiated markers” value with Nanog-GFP MEF [5] (Day 4 after infection, vs non-treatment group, data not shown) is “increased”. In the assay on Nanog-GFP MEF [5] (Day 4 after retroviral infection, vs untreated control group, FIGS. 4 and 5A), the iPS cell-like colonies result is given as “recognized”. Further, the “induction efficiency of iPS cells” value was “increased” with human fibroblasts (L-Myc as the Myc family gene, 4F (L-Myc), FIG. 10B) and “increased” in the assay with human fibroblasts (c-Myc as the Myc family gene, 4F (c-Myc), FIG. 10A).
As to `Oc1ccc(C=Cc2cc(O)cc(O)c2)cc1` [resveratrol], the “number of Puro-resistant colonies” value with Nanog-GFP MEF [4] (4F (c-Myc), resveratrol 100 μM added Day 0 to Day 4, vs DMSO control, FIG. 6) was “significantly decreased”; with Nanog-GFP MEF [4] (4F (c-Myc), resveratrol 100 μM added Day 0 to Day 17, vs DMSO control, FIG. 6), “significantly decreased”; in the assay on Nanog-GFP MEF [4] (4F (c-Myc), resveratrol 100 μM added on Day 4 after introduction, FIG. 6) it was “relatively large number”.

The values above are taken from patent US20130011921A1, “METHOD FOR PRODUCTION OF ARTIFICIAL PLURIPOTENT STEM CELL” (SAITAMA MEDICAL UNIVERSITY, priority 2010, published 2013).
